Residues, ends and D or L forms follow the SMILES beside them. *: point of attachment. Cbz = O=C(OCc1ccccc1)*
What was measured:
[1] = system: frataxin-ProLabel fusion; assay: frataxin-ProLabel cell-based reporter assay (β-galactosidase enzyme fragment complementation), library screening; parameters: species or system human; settings: frataxin-ProLabel transfected cells treated with MG132
Protocol: The FDA-approved drug library (SELLECKCHEM SCREENING LIBRARIES®) that was used in the screening was composed of 853 drugs. The library was provided in a total of ten 96-well plate, with the drugs at a stock concentration of 10 mM in dimethyl sulfoxide (DMSO). To evaluate the effect of drugs on frataxin abundance, we generated a fusion construct between frataxin and ProLabel that was used as a reporter in a cell-based assay. The system is based on […] enzyme fragment complementation (Eglen, 2002). […] Indeed, treatment of frataxin-ProLabel transfected cells with MG132 promotes frataxin accumulation, which results in a 5-fold increase in the intensity of the luminescence signal. […]
For the screening, HEK-293 cells were transiently transfected with pCMV-fxn-ProLabel. […] After 24 hours, the complementary β-galactosidase subunit and the substrate were added and chemiluminescence emission was measured by luminometer reading. […] The chemiluminescent signal was monitored over a period of 210 minutes. […]
To analyse the FDA-approved drug screening results, an arbitrary threshold was established for each plate as the average of the luminescence measured in all the wells of the plate plus 2 standard deviations. Luminescence signal from each well was then normalized on threshold value. […]

[2] = system: newly synthesized frataxin mRNA; assay: Nascent frataxin transcripts (EU metabolic labeling, Click-iT capture, real-time PCR) in HEK293-fxn; type: cell-based, human; settings: 10 μM, 4 or 8 hours
Description: We then investigated whether the observed increase in frataxin protein levels is due to an upregulation of the frataxin mRNA, either promoted by an increase in the […] rate of frataxin mRNA or by its stabilization. To understand whether etravirine promotes de novo synthesis of frataxin mRNA, we metabolically labeled nascent transcripts through the incorporation of 5-ethynyl uridine (EU). Through a click chemistry-based reaction, biotin was then conjugated to EU-labelled transcripts, thus allowing selective isolation and analysis of newly synthesized mRNA. We therefore quantitatively analyzed the relative amount of newly synthesized frataxin mRNA in etravirine-treated HEK293-fxn cells, compared to untreated control cells. […] We then analyzed the effect of etravirine on the decay of frataxin transcript observed upon treatment with actinomycin. HEK293-fxn cells were treated with actinomycin for 4, 8 or 12 hours in the presence or absence of etravirine and frataxin mRNA was quantitated by RT-PCR.
HEK 293-fxn stably expressing frataxin (A), HEK 293 (B), or FRDA lymphoblast cell line GM16203 (C) were treated with 10 μM etravirine for the indicated time points. Protein extracts were resolved on SDS-PAGE and analyzed by western blot with anti-frataxin antibody and anti-tubulin as a loading control. Etr: etravirine; tub: tubulin; fxn pre: frataxin precursor. […]

Compound: CC(C)C[C@@H](C=O)NC(=O)[C@H](CC(C)C)NC(=O)[C@H](CC(C)C)NC(=O)OCc1ccccc1 [MG132] (Cbz-Leu-Leu-Leu-aldehyde)
- increase in the intensity of the luminescence signal [1]: 5 fold

Compound: O=C(CCCCCCC(=O)Nc1ccccc1)NO [Vorinostat]
- relative amount of newly synthesized frataxin mRNA vs untreated control cells [2]: significantly upregulates

From patent publication US10426775B2, “Methods for treating Friedreich's ataxia with etravirine” (Fratagene Therapeutics srl, priority 2017, dated 2019)
